Laboratory results published in US20150328245A1, “Agents for Eliminating Tumour-Initiating Cells” (priority 2012, published 2015).

How the values were obtained:
Type in all cases: cell-based
[1] = system: cancer cell lines; experiment: In vitro colorimetric cell death assay (MTT), overall statement
Method: It's an in vitro colorimetric assay for assessing cell viability where the cells are grown in Two-dimensional surface.
An exemplary procedure for the assay follows. Cancer cells and normal cells were plated in a 96 well plate as per predetermined plating efficiency. The plate was incubated for 24 hours in a 5% CO2 atmosphere at 37 degrees Celsius, a range of concentrations of the compounds I-1, I-2 and I-3 as well as cisplatin (known chemotherapeutic agents) were added to the separate wells, the plate was incubated further for 48 hours in a 5% CO2 atmosphere, the plate was centrifuged twice at 3000 rpm for 3 minutes, the supernatant fluid was discarded, 100 uL of 0.5 mg/mL MTT solution was added and the plate was incubated for 4 hours in a 5% CO2 atmosphere at 37 degrees Celsius. The plate was then centrifuged twice at 3000 rpm for 3 minutes, supernatant, was aspirated very carefully, 200 uL DMSO was added to each well to solubilize MTT crystals and mixed well by shaking the plate, the plate was incubated for 10 minutes in a 5% CO2 atmosphere at 37 degrees Celsius, the plate placed on the shaker of an ELISA plate reader and the absorbance at 570 nm was measured, then the percentage of viable cells remaining was calculated by first subtracting the background absorbance then comparing to the absorbance of a non-drug-treated cell sample, and the results were plotted on a graph to determine the IC50 for the compounds and cisplatin.

[2] = system: breast cancer cells MDA MB 231; experiment: In vitro 3D primary sphere forming stem cell assay
[3] = system: prostate cancer cells LNCaP; experiment: In vitro 3D primary sphere forming stem cell assay

Structure (SMILES): COc1cc2c(OC3OCC(OC)C(OC)C3O)c3c(c(-c4ccc5c(c4)OCO5)c2cc1OC)C(=O)OC3 (stereo not shown) [I-2]
- anticancer activity in cancer cell lines as compared to cisplatin [1]: high anticancer activity
- numbers of primary spheres formed, compared with cisplatin ([2]; MDA MB 231): significantly less
- # of 3D Primary Spheres Formed of Cells MDA MB231 (±SD) ([2]; final conc. 0.125 μM): 60(±9)
- # of 3D Primary Spheres Formed of Cells MDA MB231 (±SD) ([2]; final conc. 1.25 μM): 32(±5)
- # of 3D Primary Spheres Formed of Cells MDA MB231 (±SD) ([2]; final conc. 12.5 μM): 14(±2)
- # of 3D Primary Spheres Formed of Cells MDA MB231 (±SD) ([2]; final conc. 125 μM): 0(±0)
- # of 3D Primary Spheres Formed of Cells MDA MB231 (±SD) ([2]; final conc. 1250 μM): 0(±0)
- numbers of primary spheres formed, compared with cisplatin ([3]; LNCaP): significantly less
- # of 3D Primary Spheres Formed of Cells LNCaP (±SD) ([3]; final conc. 0.125 μM): 98(±17)
- # of 3D Primary Spheres Formed of Cells LNCaP (±SD) ([3]; final conc. 1.25 μM): 49(±6)
- # of 3D Primary Spheres Formed of Cells LNCaP (±SD) ([3]; final conc. 12.5 μM): 6(±2)
- # of 3D Primary Spheres Formed of Cells LNCaP (±SD) ([3]; final conc. 125 μM): 0(±0)
- # of 3D Primary Spheres Formed of Cells LNCaP (±SD) ([3]; final conc. 1250 μM): 0(±0)
